Here are results for two molecules from article PMC11165695 (Nature methods, 2024).

For one assay, the system named is SJSA-1 cells. As to the kind of experiment: Apoptosis induction / caspase-3/7 activation. Type of assay: cell-based. Particulars: Supplementary Figure 14.
For assay [1], the system named is alkaline phosphatase (ALP). Particulars: pNPP 200 μM, ALP 0.5 U/mL, PBS, room temperature, UV absorbance 405 nm.

As for `COc1cccc2c1C(=O)c1c(O)c3c(c(O)c1C2=O)C[C@@](O)(C(=O)CO)C[C@@H]3O[C@H]1C[C@H](N)[C@H](O)[C@H](C)O1` [Doxorubicin], the apoptosis induction result in the assay on SJSA-1 cells is given as “efficiently induces apoptosis”.
For the molecule `O=[N+]([O-])c1ccc(OP(=O)(O)O)cc1` [P-nitrophenyl phosphate], the “initial speed (v0), standard substrate” value in assay [1] came to 0.53 nmol/min.
